The values that follow come from patent US8445676B2, “Pyrrolotriazine kinase inhibitors” (Bristol-Myers Squibb Company, priority 2008, dated 2013).

What all share (type): biochemical
Experiment [1] concerns the target T1, JAK3 (Homo sapiens, UniProt P52333).
T1 sequence (P52333 1-1124): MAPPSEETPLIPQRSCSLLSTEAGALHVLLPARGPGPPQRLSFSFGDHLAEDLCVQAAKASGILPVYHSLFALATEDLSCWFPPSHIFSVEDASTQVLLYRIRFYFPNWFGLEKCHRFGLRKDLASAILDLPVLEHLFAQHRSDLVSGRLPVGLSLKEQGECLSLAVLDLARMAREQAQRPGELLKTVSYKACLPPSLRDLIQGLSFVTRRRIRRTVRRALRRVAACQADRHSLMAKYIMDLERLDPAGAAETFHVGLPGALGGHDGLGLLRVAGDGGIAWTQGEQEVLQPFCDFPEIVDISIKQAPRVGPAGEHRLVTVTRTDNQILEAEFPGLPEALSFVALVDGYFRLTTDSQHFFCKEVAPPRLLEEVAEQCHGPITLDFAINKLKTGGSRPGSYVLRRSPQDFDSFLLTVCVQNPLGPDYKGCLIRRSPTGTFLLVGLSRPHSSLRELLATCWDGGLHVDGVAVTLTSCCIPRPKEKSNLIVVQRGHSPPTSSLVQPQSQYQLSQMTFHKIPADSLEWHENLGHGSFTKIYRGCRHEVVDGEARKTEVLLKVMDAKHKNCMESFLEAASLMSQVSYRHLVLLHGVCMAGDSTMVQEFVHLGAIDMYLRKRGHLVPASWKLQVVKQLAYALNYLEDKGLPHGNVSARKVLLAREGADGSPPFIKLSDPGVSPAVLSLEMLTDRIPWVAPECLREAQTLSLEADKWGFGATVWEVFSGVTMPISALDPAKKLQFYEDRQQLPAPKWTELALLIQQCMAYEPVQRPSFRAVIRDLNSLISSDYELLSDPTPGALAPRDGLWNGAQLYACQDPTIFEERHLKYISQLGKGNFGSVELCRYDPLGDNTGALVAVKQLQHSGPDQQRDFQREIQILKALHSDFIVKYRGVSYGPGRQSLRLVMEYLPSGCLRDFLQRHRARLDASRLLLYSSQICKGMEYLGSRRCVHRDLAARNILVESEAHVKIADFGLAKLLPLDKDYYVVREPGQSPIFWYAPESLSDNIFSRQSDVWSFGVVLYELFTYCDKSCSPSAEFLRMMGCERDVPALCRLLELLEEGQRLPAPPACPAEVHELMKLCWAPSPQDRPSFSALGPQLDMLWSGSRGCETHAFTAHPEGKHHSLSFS
As to the kind of experiment: JAK3 Tyrosine Kinase Assay. The settings on record: prior-art compound, stated in the background; read-out: IC50 against JAK3.

The target of experiment [2] is JAK2 (Homo sapiens, UniProt O60674). As to the kind of experiment: JAK2 Tyrosine Kinase Assay. Summed up:
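Reaction of JAK2 with fluorescent substrate run 60 min at room temperature and stopped with EDTA. Substrate and phosphorylated product separated electrophoretically on a Caliper LabChip. Compounds tested at eleven concentrations in duplicate, with IC50 from non-linear regression.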

For experiment [3], the target named is T1, JAK3. The experiment can be described thus: JAK3 Tyrosine Kinase Assay. The following applies: ATP 8 μM; JAK3 2.5 nM; 60 min room temperature. The method, then: JAK3 Tyrosine Kinase Assay
The assays were performed in V-bottom 384-well plates. […] The reaction was initiated by the combination of JAK3 with substrates and test compounds. The reaction was incubated at room temperature for 60 min. and terminated by adding 45 μl of 35 mM EDTA to each sample. The reaction mixture was analyzed on the Caliper LabChip 3000 by electrophoretic separation of the fluorescent substrate and phosphorylated product. […] The final concentration of reagents in the assays is ATP, 8 μM; JAK3 fluorescent peptide, 1.5 μM; JAK3, 2.5 nM; and DMSO, 1.6%. […] Compounds were dissolved at 10 mM in dimethylsulfoxide (DMSO) and evaluated at eleven concentrations, each in duplicate. IC50 values were derived by non-linear regression analysis.

The mark [4] stands for this setting: ATP 30 μM, JAK2 1 nM, 60 min room temperature, read-out: Jak2(IC50).

The IC50 is the concentration at which inhibition is half-maximal.

The structures appear in SMILES notation. Read-outs that look alike come from different tables or passages of the source.

JAK2, sequence (O60674 whole entry): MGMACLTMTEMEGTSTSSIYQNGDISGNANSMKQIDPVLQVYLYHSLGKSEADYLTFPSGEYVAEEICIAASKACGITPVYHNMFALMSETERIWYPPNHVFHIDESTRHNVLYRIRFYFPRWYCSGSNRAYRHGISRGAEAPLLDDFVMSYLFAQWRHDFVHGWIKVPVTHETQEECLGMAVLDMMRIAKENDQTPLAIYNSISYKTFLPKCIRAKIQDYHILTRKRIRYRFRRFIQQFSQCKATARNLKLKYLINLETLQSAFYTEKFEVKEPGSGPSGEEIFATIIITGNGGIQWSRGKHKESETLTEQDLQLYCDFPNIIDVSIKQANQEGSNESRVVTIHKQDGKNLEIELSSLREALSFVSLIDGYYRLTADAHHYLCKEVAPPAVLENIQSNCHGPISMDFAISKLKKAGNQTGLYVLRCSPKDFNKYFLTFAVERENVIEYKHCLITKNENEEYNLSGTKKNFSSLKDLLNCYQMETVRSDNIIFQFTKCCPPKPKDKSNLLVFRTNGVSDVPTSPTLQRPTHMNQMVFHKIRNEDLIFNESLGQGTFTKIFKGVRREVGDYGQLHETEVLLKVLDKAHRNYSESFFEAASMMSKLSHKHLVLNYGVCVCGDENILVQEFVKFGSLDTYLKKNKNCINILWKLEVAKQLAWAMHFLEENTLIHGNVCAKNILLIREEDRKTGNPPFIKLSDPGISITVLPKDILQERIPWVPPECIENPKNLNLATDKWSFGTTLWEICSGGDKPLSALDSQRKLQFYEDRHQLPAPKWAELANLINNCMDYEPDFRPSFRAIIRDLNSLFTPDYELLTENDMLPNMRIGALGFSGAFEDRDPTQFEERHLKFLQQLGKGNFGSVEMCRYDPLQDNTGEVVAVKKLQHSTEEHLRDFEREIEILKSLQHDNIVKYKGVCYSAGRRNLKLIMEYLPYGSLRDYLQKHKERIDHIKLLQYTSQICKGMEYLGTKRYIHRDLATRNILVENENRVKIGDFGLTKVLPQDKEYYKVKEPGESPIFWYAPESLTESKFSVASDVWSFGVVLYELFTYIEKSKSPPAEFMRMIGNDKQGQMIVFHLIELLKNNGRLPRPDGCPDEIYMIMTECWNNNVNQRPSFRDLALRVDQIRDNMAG

On to `Cc1cc(Nc2nc(N3CCNCC3)nn3cccc23)[nH]n1` [Example 74 of the publication, reference compound], for which the IC50 in experiment [1] was found to be 460 nM; in experiment [2] (prior-art compound, stated in the background, read-out: IC50 against JAK2) it was 31 nM.
Turning to `Cc1cc(Nc2nc(N3CCN(C(=O)C(C)(C)NC(=O)OC(C)(C)C)CC3)nn3cccc23)n[nH]1` [Example 150, tert-butyl (1,1-dimethyl-2-(4-(4-((5-methyl-1H-pyrazol-3-yl)amino)pyrrolo[2,1-f][1,2,4]triazin-2-yl)-1-piperazinyl)-2-oxoethyl)carbamate], the IC50 was 13700 nM in experiment [3] and 700 nM in experiment [2] (setting [4]).
For `CCC(CO)(CO)C(=O)N1CCN(c2nc(Nc3cc(C)[nH]n3)c3cccn3n2)CC1` [Example 152, 2-ethyl-2-((4-(4-((5-methyl-1H-pyrazol-3-yl)amino)pyrrolo[2,1-f] [1,2,4]triazin-2-yl)-1-piperazinyl)carbonyl)-1,3-propanediol] the same measures were 2360 nM and 300 nM.
On to `Cc1cc(Nc2nc(N3CCN(C(=O)C(C)(C)N(C)C(=O)OC(C)(C)C)CC3)nn3cccc23)n[nH]1` [Example 158, tert-butyl(1,1-dimethyl-2-(4-(4-((5-methyl-1H-pyrazol-3-yl)amino)pyrrolo[2,1-f] [1,2,4]triazin-2-yl)-1-piperazinyl)-2-oxoethyl)methylcarbamate], for which the IC50 was determined as 1740 nM in experiment [3] and 300 nM in experiment [2] (setting [4]).
The matching figures for `CCC(O)(CC)C(=O)N1CCN(c2nc(Nc3cc(C)[nH]n3)c3cccn3n2)CC1` [Example 164, 3-((4-(4-((5-methyl-1H-pyrazol-3-yl)amino)pyrrolo[2,1-f] [1,2,4]triazin-2-yl)-1-piperazinyl)carbonyl)-3-pentanol]: 1490 nM and 240 nM.
The matching figures for `Cc1cc(Nc2nc(N3CCN(C(=O)C(C)(C)C)CC3)nn3cccc23)n[nH]1` [Example 168, 2-(4-(2,2-dimethylpropanoyl)-1-piperazinyl)-N-(5-methyl-1H-pyrazol-3-yl)pyrrolo[2,1-f][1,2,4]triazin-4-amine]: 210 nM and 7.07 nM.
On to `Cc1ccc(C2(C(=O)N3CCN(c4nc(Nc5cc(C)[nH]n5)c5cccn5n4)CC3)CC2)cc1` [Example 187, 2-(4-((1-(4-methylphenyl)cyclopropyl)carbonyl)-1-piperazinyl)-N-(5-methyl-1H-pyrazol-3-yl)pyrrolo[2,1-f][1,2,4]triazin-4-amine], for which the IC50 in experiment [3] is 200 nM; in experiment [2] (setting [4]), 6.83 nM.
For `Cc1cc(Nc2nc(N3CCN(C(=O)c4ccccc4S(C)(=O)=O)CC3)nn3cccc23)n[nH]1` [Example 193, N-(5-methyl-1H-pyrazol-3-yl)-2-(4-(2-(methylsulfonyl)benzoyl)-1-piperazinyl)pyrrolo[2,1-f][1,2,4]triazin-4-amine] the same measures were 3050 nM and 130 nM.
With `Cc1cc(Nc2nc(N3CCN(C(=O)c4ccccc4-c4ccccc4)CC3)nn3cccc23)n[nH]1` [Example 200, 2-(4-(2-biphenylylcarbonyl)-1-piperazinyl)-N-(5-methyl-1H-pyrazol-3-yl)pyrrolo[2,1-f][1,2,4]triazin-4-amine], the 50% inhibitory concentration (IC50) in experiment [3] worked out at 120 nM; in experiment [2] (setting [4]) it was 7.25 nM.
Turning to `Cc1cc(Nc2nc(N3CCN(C(=O)[C@@](C)(O)c4ccccc4)CC3)nn3cccc23)n[nH]1` [Example 211, (2S)-1-(4-(4-((5-methyl-1H-pyrazol-3-yl)amino)pyrrolo[2,1-f][1,2,4]triazin-2-yl)-1-piperazinyl)-1-oxo-2-phenyl-2-propanol], the IC50 in experiment [3] came to 9480 nM; in experiment [2] (setting [4]), 590 nM.
